{"source": "patent US4670469A", "about": "“Hydroxamic acid and pharmaceutical preparations containing the same” (VEB Arzneimittelwerk Dresden, priority 1983, dated 1987)", "key": {"[1]": {"target": "T1, lipoxygenase from soybeans (Glycine max, UniProt P08170)", "T1 construct": "host or cells: soybeans", "T1 sequence (P08170 1-839)": "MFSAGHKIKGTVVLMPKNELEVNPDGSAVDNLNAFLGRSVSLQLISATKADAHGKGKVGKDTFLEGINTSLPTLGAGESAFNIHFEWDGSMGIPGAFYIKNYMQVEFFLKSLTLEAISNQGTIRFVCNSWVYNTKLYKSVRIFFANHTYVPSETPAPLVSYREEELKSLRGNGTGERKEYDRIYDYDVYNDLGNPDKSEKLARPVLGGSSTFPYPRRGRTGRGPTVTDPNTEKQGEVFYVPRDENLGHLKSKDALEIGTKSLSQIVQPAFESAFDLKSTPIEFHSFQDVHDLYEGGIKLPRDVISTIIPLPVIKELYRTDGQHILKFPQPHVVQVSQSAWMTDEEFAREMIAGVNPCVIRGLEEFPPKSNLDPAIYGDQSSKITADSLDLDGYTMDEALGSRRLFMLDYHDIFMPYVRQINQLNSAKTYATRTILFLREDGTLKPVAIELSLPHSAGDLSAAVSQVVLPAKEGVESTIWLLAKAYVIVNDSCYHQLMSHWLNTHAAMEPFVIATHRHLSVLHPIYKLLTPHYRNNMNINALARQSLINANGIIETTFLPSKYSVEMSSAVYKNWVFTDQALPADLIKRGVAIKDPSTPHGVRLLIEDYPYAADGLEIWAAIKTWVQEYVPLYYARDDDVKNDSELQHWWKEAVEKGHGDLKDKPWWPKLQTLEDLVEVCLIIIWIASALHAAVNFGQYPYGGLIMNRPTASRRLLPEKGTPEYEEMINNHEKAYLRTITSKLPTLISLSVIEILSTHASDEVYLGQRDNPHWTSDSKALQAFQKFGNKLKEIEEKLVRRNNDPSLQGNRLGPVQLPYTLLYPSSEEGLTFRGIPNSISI", "experiment": "Inhibition of lipoxygenase from soybeans", "format": "biochemical", "conditions": "pH 7.4, read-out: inhibition of soybean lipoxygenase", "procedure": "(§1) The inhibition of thrombocyte aggregation is likewise ascribed to the inhibition of lipoxygenase in the cells. It has thus been shown that the arachidonate-lipoxygenase activity of a microsome-free lysate of human thrombocyte concentrates is inhibited to the extent of 100% by means of 0.25 mM salicylhydroxamic acid. Moreover, it has been shown that also a series of further lipoxygenases are inhibited by means of the here described hydroxamic acids. The lipoxygenase from soybeans reacts the most insensitive, i.e. it is inhibited by means of 1 mM salicylhydroxamic acid at pH 7.4 to an extent of 60% and by means of 0.4 mM 2-hydroxy-1-napthylhydroxamic acid to an extent of 54%. In contrast, for the lipoxygenase from peas which come closer in their characteristics to human lipoxygenase, the following I50 -values are provided: salicyl hydroxamic acid, 5 μM, 2-hydroxy-1-napthylhydroxamic acid, 2 μM, 2(2'-napthoxy)-acethydroxamic acid, 2 μM. Moreover it has been shown that the formation lipoxygenase products of arachidonic acid in in vitro cultivated aorta endothelial cells of calves is hindered through 0.1 mM 2-hydroxy-1-napthylhydroxamic acids."}, "[2]": {"target": "T2, arachidonate-lipoxygenase of human thrombocyte (Homo sapiens, UniProt P18054)", "T2 construct": "microsome-free lysate of human thrombocyte concentrates; from tissue; host or cells: human thrombocyte (platelet) concentrates, microsome-free lysate", "T2 sequence (P18054 whole entry)": "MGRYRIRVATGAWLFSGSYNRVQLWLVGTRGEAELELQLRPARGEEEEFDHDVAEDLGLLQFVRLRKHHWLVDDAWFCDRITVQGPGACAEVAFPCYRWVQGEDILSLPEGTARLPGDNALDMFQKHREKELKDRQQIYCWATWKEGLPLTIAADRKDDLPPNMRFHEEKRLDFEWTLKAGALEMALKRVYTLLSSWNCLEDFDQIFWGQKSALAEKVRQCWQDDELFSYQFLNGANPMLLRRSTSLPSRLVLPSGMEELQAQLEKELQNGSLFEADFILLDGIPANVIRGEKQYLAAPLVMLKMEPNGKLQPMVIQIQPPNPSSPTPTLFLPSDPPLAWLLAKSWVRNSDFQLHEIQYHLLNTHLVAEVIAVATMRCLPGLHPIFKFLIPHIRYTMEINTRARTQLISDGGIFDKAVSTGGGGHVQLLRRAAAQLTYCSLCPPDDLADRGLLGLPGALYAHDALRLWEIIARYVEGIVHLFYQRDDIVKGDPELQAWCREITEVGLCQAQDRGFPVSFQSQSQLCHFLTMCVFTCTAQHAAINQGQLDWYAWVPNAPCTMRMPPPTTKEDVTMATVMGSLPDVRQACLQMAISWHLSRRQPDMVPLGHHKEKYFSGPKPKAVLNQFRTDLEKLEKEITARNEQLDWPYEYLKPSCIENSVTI", "experiment": "Arachidonate-lipoxygenase activity of microsome-free lysate of human thrombocyte concentrates", "format": "biochemical", "conditions": "0.25 mM", "procedure": "as §1"}}}
{"compound": "O=C(NO)c1ccccc1O", "note": "[salicylhydroxamic acid]", "values": [{"measurement": "inhibition at 1000 µM", "setting": "[1]", "result": 60, "unit": "%"}, {"measurement": "inhibition at 250 µM", "setting": "[2]", "result": 100, "unit": "%"}]}
